Experimental data reported in patent publication US9050301B2, “Pharmaceutical composition for treatment of corneal endothelial wounds containing angiogenin” (Chung-Ang University Industry-Academy Cooperation Foundation, priority 2013, dated 2015).

Tests used:
Type in all cases: cell-based, human
Details in all cases: angiogenin 5 μg/ml
Erk1/2 = test: Western blot of angiogenin lower pathway, Erk1/2
Description: (§1) The culture medium containing 5 μg/ml of angiogenin was treated with the cultured human corneal endothelial cells for 5 minutes, 10 minutes, 30 minutes, 1 hour, and 3 hours. Afterwards, according to the treatment times, expression aspects of Akt, eNOS, and Erk1/2 genes targeting the lower pathway of angiogenin were analyzed. First, a PRO-PREP™ protein extracting solution (Intron Biotechnology, Seongnam, Korea) was used to separate the total proteins from the corneal endothelial cells. The total proteins (30 μg/sample) were heat-treated at a temperature of about 100° C. for 5 minutes, and then, 10% sodiumdodecyl sulfate polyacrylamide (SDS-PAGE) gel was used to perform electrophoresis. The proteins separated according to molecular weights thereof were transferred to a polyvinylidene fluoride (PVDF) membrane, followed by being blocked by 5% BSA dissolved in 1× tris-buffered saline (TBS) at room temperature for 1 hour. […] The ECL western blotting detection reagent (Amersham Bioscience, Piscataway, USA) was used in terms of luminescence, and then, images were detected by using the same reagent for ChemiDoc™ XRS system (Bio-Rad, Hercules, USA).

eNOS = test: Western blot of angiogenin lower pathway, eNOS
Description: as §1

Akt = test: Western blot of angiogenin lower pathway, Akt
Description: as §1

Angiogenin: 14.4-kDa single chain protein of 123 amino acids, secreted protein capable of inducing angiogenesis
Time of maximal p-Erk1/2 expression after angiogenin treatment (Erk1/2): 30 min
Relative expression of phosphate (p-form/t-form) of Erk1/2 compared with the control group (Erk1/2; 5 minutes to 3 hours): increased extent of relative expression of phosphate (p-form/t-form)
Time of maximal p-eNOS expression after angiogenin treatment (eNOS): 3 h
Relative expression of phosphate (p-form/t-form) of eNOS compared with the control group (eNOS; 5 minutes to 3 hours): increased extent of relative expression of phosphate (p-form/t-form)
Time of maximal p-Akt expression after angiogenin treatment (Akt): 10 min
Relative expression of phosphate (p-form/t-form) of Akt compared with the control group (Akt; 5 minutes to 3 hours): increased extent of relative expression of phosphate (p-form/t-form)
